“And” between values parts separate entries of the source, which are not always exact repeats. Identical values can stand only once.
Assays:
[1] = tested on: small intestinal hairworms (Trichostrongylus colubriformis); assay: Sheep digestive tract nematodes, worms remaining in the intestinal tract; assay type: in vivo; conditions: for Number of worms remaining in At autopsy: autopsy 7 days after administration, mean of 6 animals
Procedure: (§1) The PF 1022 substance was evaluated for its anthelmintic effect in sheep mixedly infected with fourth stomachworms (Ostertaqia circumcincta) and small intestinal hairworms (Trichostrongylus colubriformis) by administering it orally to 24 sheep artificially infected with said two worm species.
(§2) The infected sheep were divided into 4 groups of 6 animals, which were respectively given 1 mg/kg, 5 mg/kg, 10 mg/kg and 0 mg/kg (control) of the substance suspended in 0.5% CMC, via a stomach catheter. The observation items were the number of parasite eggs per gram of feces (EPG) before administration, the EPG 7 days after administration, and the number of worms remaining in the fourth stomach and that of worms remaining in the intestinal tract as found upon autopsy 7 days after administration.
(§3) Each numerical value given is the mean of 6 animals.

[2] = tested on: whipworms (Trichuris suis); assay: Anthelmintic activity against swine whipworms; assay type: in vivo; conditions: oral in feed; for Number of remaining worms: autopsy one week; for EPG Before administration: baseline; for EPG Upon autopsy: one week
Procedure: The PF 1022 substance was evaluated for its anthelmintic effect on swine whipworms by orally administering it to swine found to be infected with whipworms (Trichuris suis) by scatoscopy.
The PF 1022 substance was administered either once at 1 mg/kg, 5 mg/kg or 10 mg/kg, or at a daily dose of 2.5 mg/kg or 5 mg/kg once daily for 2 consecutive days by admixing an amount of the substance as such equal to each dose with a small portion of the ordinary feed. After administration, the number of whipworm eggs in the feces of each animal was determined daily in terms of EPG. In three animals, the worms eliminated were counted as well. One week after initiation of administration, all the animals were sacrificed and autopsied and the worms remaining in the intestinal tract were counted.

Solubility = assay type: physicochemical
Excerpt: (11) Solubility: Soluble in methanol, ethyl acetate, acetone, chloroform and dimethyl sulfoxide; insoluble in water;

[3] = Classification by basicity, acidity or neutrality; assay type: physicochemical
[4] = tested on: strongyles (Strongylus spp.); assay: Anthelmintic effect on equine strongyles; assay type: in vivo; conditions: horse, oral 5 mg/kg Day 0 and 2.5 mg/kg Day 1
Procedure: The PF 1022 substance was evaluated for its anthelmintic effect in a horse found by scatoscopy to be infected with roundworms (Parascaris equorum) and strongyles (Strongylus spp.) by orally administering the substance thereto.
The PF 1022 substance was suspended in water and administered with a stomach catheter at 5 mg/kg on the first day and at 2.5 mg/kg on the second day. For both the roundworms and strongyles, parasite eggs in each gram of feces (EPG) as well as parasites eliminated were counted daily for one week following the first administration. For strongyles, the number of worms in 100 g of feces was determined.

Ames test = assay type: cell-based
[5] = tested on: hookworms (Ancylostoma caninum); assay: Anthelmintic effect on canine hookworms; assay type: in vivo; conditions: dog, single oral dose 5 mg/kg
Procedure: The PF 1022 substance was evaluated for its anthelmintic effect in dogs by orally administering it to dogs found to be infected with roundworms (Toxocara canis), hookworms (Ancylostoma caninum) and whipworms (Trichuris vulpisl), respectively, by scatoscopy.
The substance was orally administered once at the dose of 5 mg/kg to a dog infected with the roundworms or hookworms by admixing the substance with a small portion of the ordinary feed, and the worms eliminated and those remaining in the dog during 7 days following administration were counted.

[6] = tested on: digestive tract nematodes (Haemonchus controtus, Ostertaqia ostertagi, hairworms, cooperids, etc.); assay: Anthelmintic effect on bovine digestive tract nematodes (EPG); assay type: in vivo; conditions: cattle
Procedure: The PF 1022 substance was evaluated for its anthelmintic effect on the so-called digestive tract nematodes parasitizing cattle by orally administering it to three head of cattle found to be infected with such nematodes (Haemonchus controtus, Ostertaqia ostertagi, hairworms, cooperids, etc.) by scatoscopy.
The PF 1022 substance was administered either once at 5 mg/kg or for 2 days once daily at 12.5 mg/kg, in the form of a suspension in water, using a stomach catheter. Parasite eggs in feces (EPG) were counted daily for 3 days before administration and for 7 days following administration.

[7] = tested on: fourth stomachworms (Ostertaqia circumcincta) and small intestinal hairworms (Trichostrongylus colubriformis); assay: Sheep digestive tract nematodes, mixed infection, EPG; assay type: in vivo; conditions: mean of 6 animals; for EPG At autopsy: 7 days after administration; for EPG Before administration: baseline
Procedure: as §1, §2, §3

[8] = 2 administrations, 2.5 mg/kg/administration
[9] = 2 administrations, 5 mg/kg/administration

## CC(C)C[C@H]1C(=O)O[C@H](Cc2ccccc2)C(=O)N(C)[C@@H](CC(C)C)C(=O)O[C@H](C)C(=O)N(C)[C@@H](CC(C)C)C(=O)O[C@H](Cc2ccccc2)C(=O)N(C)[C@@H](CC(C)C)C(=O)O[C@H](C)C(=O)N1C [PF 1022 substance]
[1]; oral 1 mg/kg
  Number of worms remaining in At autopsy: 8750
[1]; oral 5 mg/kg
  Number of worms remaining in At autopsy: 8317
[1]; oral 10 mg/kg
  number of worms remaining in the intestinal tract relative to the control infected group: about half
  Number of worms remaining in At autopsy: 5333
[2]; 1 administration, 1 mg/kg
  % Elimination: 4.0%
  Number of worms eliminated: 14
  Number of remaining worms: 334
  EPG Before administration: 5500
  EPG Upon autopsy: 1200
[2]; 1 administration, 10 mg/kg
  % Elimination: 100%
  Number of remaining worms: 0
  EPG Before administration: 1800
  EPG Upon autopsy: 0
[2]; [8]
  % Elimination: 100%
  EPG Upon autopsy: 0
[2]; [9]
  % Elimination: 100%
  Number of remaining worms: 0
  EPG Before administration: 100
  EPG Upon autopsy: 0
Solubility; methanol, ethyl acetate, acetone, chloroform and dimethyl sulfoxide
  Solubility: Soluble
Solubility; water
  Solubility: insoluble
[3]
  Classification by basicity, acidity or neutrality: Neutral substance
[4]; Day 0
  EPG: 265
  Number of worms eliminated: 0 per 100 g feces
[4]; Day 1
  EPG: 82
  Number of worms eliminated: 82 per 100 g feces
[4]; Day 2
  EPG: 0.6
  Number of worms eliminated: 0 per 100 g feces
[4]; Day 3
  EPG: 0.4
  Number of worms eliminated: 0 per 100 g feces
[4]; Day 4
  EPG: 0
  Number of worms eliminated: 0 per 100 g feces
[4]; Day 5
  EPG: 0
  Number of worms eliminated: 0 per 100 g feces
[4]; Day 6
  EPG: 0.2
  Number of worms eliminated: 0 per 100 g feces
[4]; Day 7
  Number of worms eliminated: 0 per 100 g feces
Ames test
  Ames test result: negative
[5]
  elimination: 100%
[5]; 7 days
  hookworms eliminated: Twelve
  hookworms remaining: no hookworms were found remaining
[6]; 2 day administration at 12.5 mg/kg, day after the second day of administration
  EPG relative to that found before administration: about half
[6]; oral 5.0 mg/kg x 1, Day 0 (day of first administration)
  EPG: 34
[6]; oral 5.0 mg/kg x 1, Day 1
  EPG: 44
[6]; oral 5.0 mg/kg x 1, Day 2
  EPG: 61
[6]; oral 5.0 mg/kg x 1, Day 3
  EPG: 18
[6]; oral 5.0 mg/kg x 1, Day 4
  EPG: 30
[6]; oral 5.0 mg/kg x 1, Day 5
  EPG: 6
[6]; oral 5.0 mg/kg x 1, Day 6
  EPG: 27
[6]; oral 5.0 mg/kg x 1, Day 7
  EPG: 7
[6]; oral 5.0 mg/kg x 1, Day -1 (before administration)
  EPG: 34
[6]; oral 5.0 mg/kg x 1, Day -2 (before administration)
  EPG: 32
[6]; oral 5.0 mg/kg x 1, Day -3 (before administration)
  EPG: 30
[6]; oral 12.5 mg/kg x 2, Day 0 (day of first administration), 12.5 mg/kg
  EPG: 112 and 64
[6]; oral 12.5 mg/kg x 2, Day 2, 12.5 mg/kg
  EPG: 26 and 30
[6]; oral 12.5 mg/kg x 2, Day 3, 12.5 mg/kg
  EPG: 34 and 41
[6]; oral 12.5 mg/kg x 2, Day 4, 12.5 mg/kg
  EPG: 41 and 29
[6]; oral 12.5 mg/kg x 2, Day 5, 12.5 mg/kg
  EPG: 41 and 34
[6]; oral 12.5 mg/kg x 2, Day 6, 12.5 mg/kg
  EPG: 42 and 40
[6]; oral 12.5 mg/kg x 2, Day 7, 12.5 mg/kg
  EPG: 49 and 36
[6]; oral 12.5 mg/kg x 2, Day -1 (before administration), 12.5 mg/kg
  EPG: 109 and 67
[6]; oral 12.5 mg/kg x 2, Day -2 (before administration), 12.5 mg/kg
  EPG: 109 and 58
[6]; oral 12.5 mg/kg x 2, Day -3 (before administration), 12.5 mg/kg
  EPG: 91 and 58
[7]; oral 1 mg/kg
  EPG At autopsy: 3114
  EPG Before administration: 2447
[7]; oral 5 mg/kg
  EPG At autopsy: 2462
  EPG Before administration: 2458
[7]; oral 10 mg/kg
  EPG At autopsy: 1970
  EPG Before administration: 2332
